For orientation: AUC(0-t) means the area under the concentration-time curve up to a stated or last time point.

The target of one data set is T1, 5-HT1B receptor (Macaca mulatta, UniProt F6SFA9).
T1 construct: assess changes in the endogenous serotonin concentration in living rhesus monkeys; from tissue; host or cells: brain of living rhesus monkeys (PET)
Briefly: Example 1 PET monkey study: change in [11C]AZ10419369-5-HT1B receptor binding potential (BPND). The data set is classed as in vivo, rhesus monkeys. The settings on record: rhesus monkey, iv, Citalopram 0.3 mg/kg IV, mean±standard error, n=3, read-out: ΔBPND (% of baseline). From the text: Positron Emission Tomography (PET) was used to assess changes in the endogenous serotonin concentration in living rhesus monkeys. The objective of the present study was two-fold. […] The chemical name for [^11C]MADAM is [^11C] N,N-dimethyl-2-(2-amino-4-methylphenylthio)benzylamine.
FIG. 1 illustrates the study design used for assessment of serotonin releasing capacities. A similar study design was applied for assessment of SERT occupancy.

In data set [1] the test system is patients with recurrent major depressive disorder. Briefly: Example 3 clinical trial: MADRS and CGI-I efficacy.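 On Change in 5-item MADRS score, Mean: apparent sadness Reported sadness Inner tension Pessimistic thoughts Suicidal thoughts.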 The data set is classed as in vivo, human. The settings on record: for Change in 5-item MADRS score, Mean / Change in MADRS total score, Mean: PBO IV + VOR oral (10 mg/day), N 28; for % responders (CGI-I ≤ 2) / % responders (≥50% reduction on MADRS Scale): PBO IV + VOR oral. As for the experimental part:
In particular, a total of 55 patients (27 and 28 in each treatment group) were recruited to an interventional, prospective, multi-national, multi-site, randomised, double-blind, parallel-group, fixed-dose study.
The study consisted of a Screening Period—2 to 14-day period from screening to randomisation, a Treatment Period—15-day double-blind treatment period with one initial IV administration of 17 mg vortioxetine or saline and daily oral treatment with vortioxetine 10 mg and a Safety Follow-up Period—4-week period after end of treatment or after withdrawal from the study.
At the Baseline Visit, patients were equally randomised (1:1) to either of the following two dose regimens: vortioxetine 17 mg single dose (IV) and vortioxetine 10 mg/day (tablet) or placebo single dose (IV) and vortioxetine 10 mg/day (tablet).
(§1) Patients randomised to the vortioxetine IV dose regimen, received a single double-blind IV dose of 17 mg vortioxetine, infused over 2 hours, on Day 0 (baseline). Patients randomised to the vortioxetine oral dose regimen received a single double-blind IV dose of placebo (saline), infused over 2 hours, on Day 0. From Day 0 to Day 14, all patients in both treatment groups also received open labelled 10 mg/day vortioxetine by oral administration (tablets).
Following the IV infusion, patients stayed hospitalised for approximately 24 hours for close observation. After the hospitalisation period, patients continued the study on an outpatient basis.
Efficacy and safety data were collected at Days 0, 1, 3, 7, and 14, including MADRS and clinical global impression […].
The full MADRS scale may not be a suitable tool for gauging the early onset of anti-depressant effect of a drug because some of the ten items addressed in the MADRS test may require longer assessment time to validly assess a given symptom. For example, the MADRS item “Concentration Difficulties” requires that the patient has been exposed to a situation during the treatment where a change in the ability to concentrate could be identified in order for that item to truly reflect a treatment effect.

The nature of data set [2]: Example 3 clinical trial: vortioxetine plasma levels and simulated AUC0-24. Conditions: human, 10 mg/day; for AUC(0-t): oral, popPK simulation based on observed data. The data set is classed as in vivo. As for the experimental part:
as §1
The popPK model from example 2 was used to simulate vortioxetine plasma levels based on the observed data from Table 5. […] That is, the steady-state plasma level of vortioxetine achieved from the combined IV and oral vortioxetine administration the within 24 hours from the first dosing is essentially the same as the steady-state vortioxetine plasma level achieved at day 14 following the administration of once-daily oral vortioxetine alone in that period.

Like-named read-outs stand apart in the source and are kept apart here.

T1 sequence (F6SFA9 1-390): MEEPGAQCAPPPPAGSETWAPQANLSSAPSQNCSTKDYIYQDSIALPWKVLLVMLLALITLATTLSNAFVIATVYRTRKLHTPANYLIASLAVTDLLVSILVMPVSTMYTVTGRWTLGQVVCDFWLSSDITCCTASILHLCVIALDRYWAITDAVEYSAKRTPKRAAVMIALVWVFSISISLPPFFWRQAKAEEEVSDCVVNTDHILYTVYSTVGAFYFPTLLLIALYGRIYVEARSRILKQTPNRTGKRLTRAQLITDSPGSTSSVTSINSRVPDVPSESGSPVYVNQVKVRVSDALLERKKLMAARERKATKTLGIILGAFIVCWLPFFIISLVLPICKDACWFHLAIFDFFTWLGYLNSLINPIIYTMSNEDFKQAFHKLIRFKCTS

Regarding `CN(C)CCCC1(c2ccc(F)cc2)OCc2cc(C#N)ccc21` (centres unmarked) [Citalopram], the change in vivo at 0.3 mg/kg on 5-HT1B receptor (Amygdala) is 4.6 ± 11.6%; at 5-HT1B receptor (Caudate nucleus) it was 7.1 ± 7.5%; on 5-HT1B receptor (Dorsal raphe nucleus), -21.2 ± 5.7%; at 5-HT1B receptor (Frontal gyrus), 12.4 ± 9.3%; on 5-HT1B receptor (Globus pallidus) it was -1.6 ± 9.6%; on 5-HT1B receptor (Hippocampus), 5.4 ± 12.5%. Also, the change in vivo at 0.3 mg/kg is 2.7 ± 5.3% at 5-HT1B receptor (Midbrain); 15.7 ± 11.1% at 5-HT1B receptor (Occipital gyrup); 7.3 ± 12% on 5-HT1B receptor (Putamen); 0.3 ± 5.6% on 5-HT1B receptor (Thalamus); 3.1 ± 10.8% at 5-HT1B receptor (Ventral striatum).
On to `Cc1ccc(Sc2ccccc2N2CCNCC2)c(C)c1` [PBO IV + VOR oral], for which the “Change in 5-item MADRS score, Mean” value in data set [1] (Day 1) is −3.92; in data set [1] (Day 3), −6.00; in data set [1] (Day 7), −7.03; in data set [1] (Day 14) it was -9.21. The results for the “Change in MADRS total score, Mean” value in data set [1] (Day 1), in data set [1] (Day 3) and in data set [1] (Day 7) were −5.5, −10.3 and −13.4, respectively. The “% responders (CGI-I ≤ 2)” value in data set [1] (Day 1) is recorded as 7.1%; in data set [1] (Day 3) it was 39.3%; in data set [1] (Day 7), 42.9%; in data set [1] (Day 14), 67.9%. Moreover, the “% responders (≥50% reduction on MADRS Scale)” value in data set [1] (Day 1) came to 0%; in data set [1] (Day 3) it was 14.3%; in data set [1] (Day 7), 28.6%; in data set [1] (Day 14) it was 50.0%. In addition, the concentration at 2 h in data set [2] (PBO IV + VOR oral, Day 0, 2 hours) was 0.56 ± 1.18 ng/mL. For the same molecule, the concentration at 8 h in data set [2] (PBO IV + VOR oral, Day 0, 8 hours) is 2.8 ± 1.8 ng/mL. The concentration at 24 h in data set [2] (PBO IV + VOR oral, Day 0, 24 hours) is 2.6 ± 1.3 ng/mL. In data set [2] (PBO IV + VOR oral, Day 14), the concentration at 14 day is 9.9 ± 5.3 ng/mL. Also, the AUC(0-t) is 47 ± 20 ng·h/mL in data set [2] (day 0, PBO IV+VOR oral treated patients) and 230 ± 85 ng·h/mL in data set [2] (day 14, PBO IV+VOR oral treated patients).

These data come from US10258617B2, “Dosing regimens for fast onset of antidepressant effect” (H. Lundbeck A/S, priority 2016, dated 2019).
